Reference: ChEMBL document CHEMBL1201862, “PubChem BioAssay data set” (2004)
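Five compound concentrations were applied to cells in 96-well plates for 48 hours; endpoints were derived by simple linear interpolation of the resulting dose-response curve. Abbreviation: GI50, concentration required for 50% inhibition of growth.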 Calls of active or inactive are those of the source. Cut-off read from the data, not from the text of the source: active = GI50 up to about 1.1 µM and inactive = higher.

Legend:
Assay in all cases: growth of human tumour cells (NCI), 48 h
A549 = test system: A549
BT-549 = test system: BT-549
CAKI-1 = test system: CAKI-1
EKVX = test system: EKVX
HCT-116 = test system: HCT-116
Hs-578T = test system: Hs-578T
LOX IMVI = test system: LOX IMVI
MDA-MB-435 = test system: MDA-MB-435
NCI-H460 = test system: NCI-H460
OVCAR-5 = test system: OVCAR-5
OVCAR-8 = test system: OVCAR-8
RPMI-8226 = test system: RPMI-8226
SF-268 = test system: SF-268
SF-539 = test system: SF-539
SK-MEL-28 = test system: SK-MEL-28
SK-MEL-2 = test system: SK-MEL-2
SR = test system: SR
U-251 = test system: U-251
UACC-62 = test system: UACC-62

Row | SMILES | GI50 (A549) | GI50 (BT-549) | GI50 (CAKI-1) | GI50 (EKVX) | GI50 (HCT-116) | GI50 (Hs-578T) | GI50 (LOX IMVI) | GI50 (MDA-MB-435) | GI50 (NCI-H460) | GI50 (OVCAR-5) | GI50 (OVCAR-8) | GI50 (RPMI-8226) | GI50 (SF-268) | GI50 (SF-539) | GI50 (SK-MEL-28) | GI50 (SK-MEL-2) | GI50 (SR) | GI50 (U-251) | GI50 (UACC-62)
1 | Clc1ccc(CCNC2(c3cc4ccccc4s3)CCCCC2)cc1Cl | 47.8 µM (inactive) | 28.2 µM (inactive) | 29.5 µM (inactive) | 26.1 µM (inactive) | 12.4 µM (inactive) | 42.5 µM (inactive) | 18.5 µM (inactive) | 41.4 µM (inactive) | 14.8 µM (inactive) | 19.5 µM (inactive) | 31.9 µM (inactive) | 11.5 µM (inactive) | 53 µM (inactive) | 16.9 µM (inactive) | 25.2 µM (inactive) | 19 µM (inactive) | 11.9 µM (inactive) | 23.9 µM (inactive) | 17.7 µM (inactive)
2 | CCOP(=O)(OCC)C(=C1C=C(C(C)(C)C)C(=O)C(C(C)(C)C)=C1)P(=O)(OCC)OCC | > 10 µM (inactive) | 2.86 µM (inactive) | 3.33 µM (inactive) | > 7.76 µM (inactive) | 2.54 µM (inactive) | > 10 µM (inactive) | > 10 µM (inactive) | > 5.24 µM (inactive) | > 10 µM (inactive) | > 10 µM (inactive) | > 10 µM (inactive) | 5.08 µM (inactive) | > 10 µM (inactive) | > 10 µM (inactive) | > 10 µM (inactive) | > 10 µM (inactive) | 3.64 µM (inactive) | > 10 µM (inactive) | > 10 µM (inactive)
3 | Cc1ccc(-n2cc(-c3ccc(Cl)cc3)c3c(NNC(=S)NCc4ccccc4)ncnc32)cc1 | 4 µM (inactive) | 17.9 µM (inactive) | 5.46 µM (inactive) | 13.1 µM (inactive) | 4.66 µM (inactive) | 60.7 µM (inactive) | 5.06 µM (inactive) | 8.02 µM (inactive) | 2.07 µM (inactive) | 11.3 µM (inactive) | 6.22 µM (inactive) | 9.29 µM (inactive) | 8.53 µM (inactive) | 13.6 µM (inactive) | 16.1 µM (inactive) | 3.17 µM (inactive) | 3.61 µM (inactive) | 5.36 µM (inactive) | 18.1 µM (inactive)
4 | Oc1c(Br)cc(/C=C/c2cccc(/C=C/c3cc(Br)c(O)c(Br)c3)n2)cc1Br | 3.72 µM (inactive) | 26.1 µM (inactive) | 11.5 µM (inactive) | 14.8 µM (inactive) | 8.81 µM (inactive) | 17.5 µM (inactive) | 13.7 µM (inactive) | 13.5 µM (inactive) | 2.96 µM (inactive) | 17.6 µM (inactive) | 13 µM (inactive) | 11.5 µM (inactive) | 15 µM (inactive) | 13.7 µM (inactive) | 12.1 µM (inactive) | 4.89 µM (inactive) | 5.15 µM (inactive) | 9.06 µM (inactive) | 15.7 µM (inactive)
5 | COC(=O)c1cc2c(cc1Cl)Sc1nnc(Nc3ccccc3)n1S2(=O)=O | 8.47 µM (inactive) | 4.46 µM (inactive) | 2.42 µM (inactive) | 7.1 µM (inactive) | 3.61 µM (inactive) | 3.1 µM (inactive) | 7.98 µM (inactive) | 7.48 µM (inactive) | 10 µM (inactive) | 7.93 µM (inactive) | 3.58 µM (inactive) | 1.62 µM (inactive) | 2.26 µM (inactive) | 2.15 µM (inactive) | 3.15 µM (inactive) | 2.81 µM (inactive) | 2.74 µM (inactive) | 2.76 µM (inactive) | 3.99 µM (inactive)
6 | Cc1nc2ccccc2n1CCc1nc2ccccc2s1 | 23.8 µM (inactive) | > 100 µM (inactive) | > 100 µM (inactive) | 7.23 µM (inactive) | 25.9 µM (inactive) | 53.6 µM (inactive) | 64.9 µM (inactive) | 57.8 µM (inactive) | 31.2 µM (inactive) | > 100 µM (inactive) | 41.3 µM (inactive) | 15 µM (inactive) | 53.2 µM (inactive) | 35.2 µM (inactive) | > 100 µM (inactive) | 86.9 µM (inactive) | 11.6 µM (inactive) | 75 µM (inactive) | 60.8 µM (inactive)
7 | CCc1nc(N)nc(N)c1-c1ccc(Cc2ccccc2)c([N+](=O)[O-])c1 | < 0.01 µM (active) | 13 µM (inactive) | 0.0183 µM (active) | 5.53 µM (inactive) | < 0.01 µM (active) | 12.3 µM (inactive) | < 0.01 µM (active) | < 0.01 µM (active) | < 0.01 µM (active) | > 55 µM (inactive) | < 0.0153 µM (active) | 0.0622 µM (active) | 0.0192 µM (active) | 0.0475 µM (active) | > 39.5 µM (inactive) | 33.9 µM (inactive) | < 0.01 µM (active) | < 0.0178 µM (active) | < 0.0111 µM (active)
8 | CC(=O)C1COC(O)C1C (configuration not stated) | 53.8 µM (inactive) | 30 µM (inactive) | 22.8 µM (inactive) | 38 µM (inactive) | 18.4 µM (inactive) | 24.1 µM (inactive) | 16.4 µM (inactive) | 16.1 µM (inactive) | 18.3 µM (inactive) | 27.2 µM (inactive) | 19.5 µM (inactive) | 19.7 µM (inactive) | 17.3 µM (inactive) | 17.5 µM (inactive) | 19.5 µM (inactive) | 15.3 µM (inactive) | 11.5 µM (inactive) | 23.4 µM (inactive) | 14 µM (inactive)
